Measured values taken from PMC8150775, “Repositioning Azelnidipine as a Dual Inhibitor Targeting CD47/SIRPα and TIGIT/PVR Pathways for Cancer Immuno-Therapy” (Biomolecules, 2021).

Key:
CD47/SIRPα interaction = molecular target: T1, CD47/SIRPα interaction (Homo sapiens, UniProt P78324); assay: Blocking assay by flow cytometry, preliminary screening at a single concentration, CD47/SIRPα; format: binding; details: preliminary test, single concentration of 100 μM
T1 construct: purchased ACRO Biosystem SIA-H5251; host or cells: CHOK1-CD47 cells (lenti-viral transfection)
T1 sequence (P78324 31-370 limits assumed): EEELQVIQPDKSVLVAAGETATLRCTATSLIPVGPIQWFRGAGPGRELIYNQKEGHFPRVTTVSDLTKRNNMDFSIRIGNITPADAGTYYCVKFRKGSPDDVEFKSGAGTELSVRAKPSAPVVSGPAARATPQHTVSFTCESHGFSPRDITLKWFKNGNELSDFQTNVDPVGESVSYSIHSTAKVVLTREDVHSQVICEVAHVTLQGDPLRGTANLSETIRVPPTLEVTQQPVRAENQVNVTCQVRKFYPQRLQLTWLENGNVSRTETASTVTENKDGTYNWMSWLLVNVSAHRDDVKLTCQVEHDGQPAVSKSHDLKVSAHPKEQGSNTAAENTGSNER
Procedure: (§1) The abilities of small molecule inhibitors (SMIs) (purchased from TargetMol, Shanghai, China) to block the binding of SIRPα protein to CHOK1-CD47 cells or PVR protein to CHOK1-TIGIT cells were determined by flow cytometry, as previously reported. The SMIs at indicated concentrations were incubated with Fc-tagged SIRPα or PVR protein for 30 min at 4°C, followed by incubating with the indicated cells for another 30 min. Human SIRPα protein (SIA-H5251, ACRO Biosystem, Beijing, China), mouse SIRPα protein (SIA-M5258, ACRO Biosystem, Beijing, China), human PVR protein (CD5-H82F6, ACRO Biosystem, Beijing, China), and mouse PVR protein (50259-M03H, Sino Biological, Beijing, China) were used. PE-conjugated anti-human IgG antibody was used to detect the Fc protein bind to cells. Cells incubated with the Fc proteins and anti-human IgG antibody without the SMIs serve as the positive control. The mean fluorescent intensity (MFI) of each sample was detected and recorded by a flow cytometry. The blocking efficacy of the SMIs was calculated as the equation: (MFI of the positive control-MFI of the SMI)/MFI of the positive control × 100%.
The small molecule inhibitor could not only bind to the target; most importantly, it should interfere with the receptor–ligand interactions. Subsequently, the candidate inhibitors were screened by the blocking assays with the established CD47 and TIGIT over-expressing cell lines. The test was initialed with a preliminary screening of the candidates with a single concentration (Figure 2D). Generally, the SMI blocking efficacy to the CD47/SIRPα interaction was much higher than that of the TIGIT/PVR. […] Therefore, the SMI-F11 and SMI-F17 may exert dual blocking effects in the CD47/SIRPα and TIGIT/PVR pathways. Blocking assays with a concentration gradient of the SMI were further performed to validate the preliminary screening. […] The similar blocking assays with the mouse CD47 and TIGIT over-expressing cells were also performed. […] Considering that most pairs of the immune checkpoints interact with the corresponding ligand in parallel forms, the blocking assays with the PD-1/PD-L1 interaction system was also conducted to test the specificity.

human CD47/SIRPα = molecular target: T2, human CD47/SIRPα (Homo sapiens, UniProt P78324); assay: Blocking assay, human SIRPα protein binding to CHOK1-hCD47 cells; details: concentration gradient; read-out: IC50, blocking human CD47/SIRPα (hSirpα binding)
T2 construct: purchased ACRO Biosystem SIA-H5251; host or cells: soluble protein purchased; CD47 on CHOK1-hCD47 cells (lenti-viral transfection)
T2 sequence (P78324 31-370 limits assumed): as above
Procedure: as §1

B16-OVA cells = assay: Phagocytosis assay, BMDM co-cultured with GFP+ B16-OVA cells; format: cell-based, mouse; details: 20 μM, 4 h
Procedure: Bone marrow-derived macrophage (BMDM) cells were isolated from C57BL/6 or BALB/c mice and induced with 20 ng/mL of GM-CSF (Peprotech, Rocky Hill, CT, USA) for 7 days. Meanwhile, the medium was replaced with fresh medium containing the cytokine and the adherent cells were harvested. Phagocytosis assays were performed by a co-culture of the BMDM macrophages with carboxyfluorescein succinimidyl ester-labeled (CFSE^+) or GFP^+ tumor cells at a ratio of 1:4 in a serum-free medium at 37 °C for 4 h, in low-attachment 96-well tissue culture plates (Corning, New York, NY, USA). The cells were harvested and the macrophages were identified by a flow cytometry using anti-F4/80 antibody (eBioscience, San Diego, CA, USA). Then, 7-AAD (eBioscience) was used to exclude the dead cells. The effects of azelnidipine (20 μM) on phagocytosis by BMDM cells were tested, and the anti-CD47 antibody (clone: miap301) were used as the positive control. Phagocytosis rate was determined with the formulation: F4/80^+GFP^+ or F4/80^+CFSE^+ cells/ Total F4/80^+ cells.
Figure 4 Azelnidipine enhances macrophage mediated phagocytosis of the tumor cells. The effects of the azelnidipine on the phagocytosis of the macrophages were tested by a co-culture of the tumor cells and BMDM cell derived from C57BL/6 or BALB/c mice. […] GFP^+ or CFSE^+ BMDMs were detected by a flow cytometry. […]

blocking efficacy, CD47/SIRPα interaction (CD47/SIRPα interaction): more than 50% | IC50 (human CD47/SIRPα): ~36 µM
SMILES: CC1=C(C(=O)OC(C)C)C(c2cccc([N+](=O)[O-])c2)C(C(=O)OC2CN(C(c3ccccc3)c3ccccc3)C2)=C(N)N1 (stereo not drawn) [Azelnidipine]
phagocytosis of B16-OVA cells by BMDM cells (B16-OVA cells): significantly enhance
